Measured values published in ChEMBL document CHEMBL6096654, “Allosteric inhibition of PTP1B by bromocatechol-chalcone derivatives” (Eur J Med Chem, 2025).
pIC50: −log10 of the molar value. Calls of active or inactive are those of the source. The calls are words filed in the database; no cut-off is given here.

Legend:
HepG2 [1] = test: Induction of glucose uptake in human HepG2 cells cultured in low glucose medium containing compound for 24 hrs; type: functional, cell-based; conditions: dose 0.625-2.5 µmol/L
[2] = Acute toxicity in Kunming mouse assessed as change in cell morphology of liver at 2000 mg/kg, po measured for 14 days by H and E staining based analysis; type: organism-based; conditions: in vivo, 336 h, time 14 day
[3] = Acute toxicity in Kunming mouse assessed as change in cell morphology of kidney at 2000 mg/kg, po measured for 14 days by H and E staining based analysis; type: organism-based; conditions: in vivo, 336 h, time 14 day
HepG2 [4] = test: Inhibition of insulin-resistance in insulin-resistant human HepG2 cells assessed as increase in insulin receptor phosphorylation pretreated for 24 hrs followed by compound washout and further addition of insulin measured after 20 mins by Western blot analysis; type: functional, cell-based; conditions: dose 0.625-2.5 µM
C2C12 = test: Inhibition of insulin-resistance in insulin-resistant mouse C2C12 cells assessed as increase in insulin receptor phosphorylation pretreated for 24 hrs followed by compound washout and further addition of insulin measured after 20 mins by Western blot analysis; type: functional, cell-based; conditions: dose 0.625-2.5 µM
Mus musculus [5] = test: Hypoglycemic activity in BKD db/db mouse assessed as reduction in lipid droplet accumulation in liver at 40 to 80 mg/kg/day, po for 8 weeks by H and E staining based analysis; type: functional, organism-based; conditions: dose 40-80 mg/kg/day
[6] = Acute toxicity in Kunming mouse assessed as change in cell morphology of heart at 2000 mg/kg, po measured for 14 days by H and E staining based analysis; type: organism-based; conditions: in vivo, 336 h, time 14 day
Mus musculus [7] = test: Hypoglycemic activity in BKD db/db mouse assessed as increase in AKT phosphorylation in liver at 40 to 80 mg/kg/day, po for 8 weeks by Western blot analysis; type: functional, organism-based; conditions: dose 40-80 mg/kg/day
[8] = Acute toxicity in Kunming mouse assessed as animal mortality at 2000 mg/kg, po measured for 14 days; type: organism-based; conditions: in vivo, 336 h, time 14 day
[9] = Acute toxicity in Kunming mouse assessed as change in cell morphology of spleen at 2000 mg/kg, po measured for 14 days by H and E staining based analysis; type: organism-based; conditions: in vivo, 336 h, time 14 day
Mus musculus [10] = test: Hypoglycemic activity in BKD db/db mouse assessed as decrease in blood glucose level at 40 to 80 mg/kg/day, po for 7 weeks followed by insulin injection by […] method; type: functional, organism-based; conditions: dose 40-80 mg/kg/day
Mus musculus [11] = test: Hypoglycemic activity in BKD db/db mouse assessed as decrease in blood glucose level at 40 to 80 mg/kg/day, po for 6 weeks by OGTT method; type: functional, organism-based; conditions: dose 40-80 mg/kg/day
[12] = Acute toxicity in Kunming mouse assessed as toxic effects at 2000 mg/kg, po measured for 14 days; type: organism-based; conditions: in vivo, 336 h, time 14 day
3T3-L1 [13] = test: Inhibition of insulin-resistance in insulin-resistant mouse 3T3-L1 cells assessed as increase in insulin receptor phosphorylation pretreated for 24 hrs followed by compound washout and further addition of insulin measured after 20 mins by Western blot analysis; type: functional, cell-based; conditions: dose 0.625-2.5 µM
Mus musculus [14] = test: Hypoglycemic activity in BKD db/db mouse assessed as regular arrangement of liver cells at 40 to 80 mg/kg/day, po for 8 weeks by H and E staining based analysis; type: functional, organism-based; conditions: dose 40-80 mg/kg/day
3T3-L1 [15] = test: Induction of glucose uptake in mouse 3T3-L1 cells cultured in low glucose medium containing compound for 24 hrs; type: functional, cell-based; conditions: dose 0.625-2.5 µmol/L
[16] = Acute toxicity in Kunming mouse assessed as behavioural changes at 2000 mg/kg, po measured for 14 days; type: organism-based; conditions: in vivo, 336 h, time 14 day
[17] = molecular target: T1, Tyrosine-protein phosphatase non-receptor type 1 (Homo sapiens, UniProt P18031); test: Allosteric inhibition of PTP1B (unknown origin) using pNPP as substrate incubated for 30 mins by spectrophotometry
T1 sequence (P18031 whole entry): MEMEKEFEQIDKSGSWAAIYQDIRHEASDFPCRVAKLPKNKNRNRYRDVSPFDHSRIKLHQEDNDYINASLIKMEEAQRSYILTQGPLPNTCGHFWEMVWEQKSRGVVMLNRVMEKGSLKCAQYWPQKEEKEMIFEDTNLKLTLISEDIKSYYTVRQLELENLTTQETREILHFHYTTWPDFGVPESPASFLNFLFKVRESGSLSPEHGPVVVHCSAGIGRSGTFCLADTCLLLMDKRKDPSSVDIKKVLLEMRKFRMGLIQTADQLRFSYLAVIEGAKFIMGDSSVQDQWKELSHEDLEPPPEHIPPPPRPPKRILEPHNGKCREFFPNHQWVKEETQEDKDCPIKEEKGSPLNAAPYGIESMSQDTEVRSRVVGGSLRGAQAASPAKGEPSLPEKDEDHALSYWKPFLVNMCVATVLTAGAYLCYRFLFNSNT

[18] = molecular target: T2, Tyrosine-protein phosphatase non-receptor type 1 (Homo sapiens) (UniProt P18031); test: Induction of thermal stabilization of PTP1B in human HepG2 cells at 2.5 u incubated for 6 hrs followed by heat exposure at 51 to 65 degreeC for 4 mins by CETSA; type: cell-based
T2 sequence (whole entry): T1 sequence (P18031 whole entry)

[19] = molecular target: T3, Tyrosine-protein phosphatase non-receptor type 11 (Homo sapiens, UniProt Q06124); test: Inhibition of SHP2 (unknown origin) using pNPP as substrate incubated for 30 mins by spectrophotometry
T3 sequence (Q06124 whole entry): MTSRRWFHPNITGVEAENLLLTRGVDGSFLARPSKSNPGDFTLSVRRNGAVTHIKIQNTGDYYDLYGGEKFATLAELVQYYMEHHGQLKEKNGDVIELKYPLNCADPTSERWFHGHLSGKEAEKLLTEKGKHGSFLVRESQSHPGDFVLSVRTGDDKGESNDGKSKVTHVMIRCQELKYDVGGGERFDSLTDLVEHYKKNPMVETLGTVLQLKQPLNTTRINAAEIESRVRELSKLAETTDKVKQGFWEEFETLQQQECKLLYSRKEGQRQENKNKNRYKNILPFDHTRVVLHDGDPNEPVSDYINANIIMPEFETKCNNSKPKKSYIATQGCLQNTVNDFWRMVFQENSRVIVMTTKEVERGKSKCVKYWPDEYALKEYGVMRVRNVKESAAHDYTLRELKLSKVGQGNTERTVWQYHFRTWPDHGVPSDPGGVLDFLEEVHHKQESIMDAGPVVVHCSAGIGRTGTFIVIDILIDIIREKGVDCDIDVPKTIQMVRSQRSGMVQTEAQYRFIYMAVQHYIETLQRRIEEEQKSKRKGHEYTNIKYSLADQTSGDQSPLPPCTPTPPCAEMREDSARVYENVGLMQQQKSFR

[20] = Toxicity in BKD db/db mouse assessed as effect on kidney weight at 40 to 80 mg/kg/day, po qd for 8 weeks; type: organism-based; conditions: in vivo, 1344 h, dose 40-80 mg/kg/day
Mus musculus [21] = test: Hypoglycemic activity in BKD db/db mouse assessed as increase in insulin receptor phosphorylation in liver at 40 to 80 mg/kg/day, po for 8 weeks by Western blot analysis; type: functional, organism-based; conditions: dose 40-80 mg/kg/day
[22] = Toxicity in BKD db/db mouse assessed as effect on para-metrial white adipose tissue weight at 40 to 80 mg/kg/day, po qd for 8 weeks; type: organism-based; conditions: in vivo, 1344 h, dose 40-80 mg/kg/day
HepG2 [23] = test: Inhibition of insulin-resistance in insulin-resistant human HepG2 cells assessed as increase in AKT phosphorylation pretreated for 24 hrs followed by compound washout and further addition of insulin measured after 20 mins by Western blot analysis; type: functional, cell-based; conditions: dose 0.625-2.5 µM
[24] = Toxicity in BKD db/db mouse assessed as effect on epididymal white adipose tissue weight at 40 to 80 mg/kg/day, po qd for 8 weeks; type: organism-based; conditions: in vivo, 1344 h, dose 40-80 mg/kg/day

SMILES: CCOc1ccc(Oc2ccc(C(=O)/C=C/c3cc(O)c(O)c(Br)c3Br)cc2)cc1
- Activity (HepG2 [1]): Dose-dependent-effect
- Activity [2]: Non-toxic
- Activity [3]: Non-toxic
- inhibition (HepG2 [4]): Dose-dependent-effect
- inhibition (C2C12): Dose-dependent-effect
- Activity (Mus musculus [5]): Active
- Activity [6]: Non-toxic
- Activity (Mus musculus [7]): Active
- Activity [8]: Non-toxic
- Activity [9]: Non-toxic
- Activity (Mus musculus [10]): Active
- Activity (Mus musculus [11]): Active
- Activity [12]: Non-toxic
- inhibition (3T3-L1 [13]): Dose-dependent-effect
- Activity (Mus musculus [14]): Active
- Activity (3T3-L1 [15]): Dose-dependent-effect
- Activity [16]: Non-toxic
- pIC50 [17]: 5.97
- Activity [18]: Active
- pIC50 [19]: < 4.70
- Activity [20]: Non-toxic
- Activity (Mus musculus [21]): Active
- Activity [22]: Non-toxic
- inhibition (HepG2 [23]): Dose-dependent-effect
- Activity [24]: Non-toxic
